Data reported in patent US7803793B2, “Heterocyclic derived metalloprotease inhibitors” (Janssen Pharmaceutica NV, priority 2006, dated 2010).
Read-outs that look alike come from different tables or passages of the source.

Experiments:
MMP-2 = target: T1, MMP-2 (Homo sapiens, UniProt P08253); test: MMP enzymatic assay (Trupoint peptide), MMP-2; format: biochemical
T1 construct: Human MMP-2 full length (aa 1-660)
T1 sequence (P08253 30-660): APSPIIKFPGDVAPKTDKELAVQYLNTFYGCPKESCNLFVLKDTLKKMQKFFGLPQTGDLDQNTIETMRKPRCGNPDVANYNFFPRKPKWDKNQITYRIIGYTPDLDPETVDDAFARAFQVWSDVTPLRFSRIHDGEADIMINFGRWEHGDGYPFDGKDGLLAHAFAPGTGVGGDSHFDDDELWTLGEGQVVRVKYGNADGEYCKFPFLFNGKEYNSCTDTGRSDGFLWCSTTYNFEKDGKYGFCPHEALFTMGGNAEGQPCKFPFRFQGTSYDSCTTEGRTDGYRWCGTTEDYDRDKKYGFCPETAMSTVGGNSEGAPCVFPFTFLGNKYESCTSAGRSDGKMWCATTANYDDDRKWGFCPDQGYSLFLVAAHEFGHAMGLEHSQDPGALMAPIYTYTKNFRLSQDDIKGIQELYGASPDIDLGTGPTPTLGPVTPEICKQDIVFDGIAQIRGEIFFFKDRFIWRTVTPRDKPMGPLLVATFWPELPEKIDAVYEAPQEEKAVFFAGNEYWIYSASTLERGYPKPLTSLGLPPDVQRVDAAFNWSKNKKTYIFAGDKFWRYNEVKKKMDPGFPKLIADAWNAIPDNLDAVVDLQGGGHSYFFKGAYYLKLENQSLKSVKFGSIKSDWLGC
Description: [formula] • 1) Prepare appropriate 1×MMP assay buffer from 10× stock. […] Need to prepare a 2.5× concentration stock (2.5 μM) to achieve this concentration in 50 μl. Dilute compound to 2.5 mM in 100% DMSO (a 1:40 dilution), then dilute the 2.5 mM compound to 2.5 μM (1:1000) into 1× assay buffer. Make 1 ml 2.5 μM compound in assay buffer. • 4) Fill the rows B through P of a 384-well plate with assay buffer+0.1% DMSO. • 5) Add 30 ul of the 2.5 μM compound in assay buffer to the top row of the plate, doing each compound in triplicate. The plate setup should be as follows, using GM6001 as plate reference compound:
• 6) Serially dilute 10 μl down the plate to achieve 1:3 dilutions in subsequent wells. After each dilution, change pipette tips to avoid compound carryover. Discard the remaining 10 μl after diluting into the final row. • 7) Prepare enzyme dilutions at 2.5× of final desired concentration (see below). Will need 10 ml enzyme solution per plate. Add enzyme to plate, 20 μl per well. Incubate 1 hr.
• 8) Dilute the 500 μM Trupoint peptide 1:1000 into assay buffer to achieve a 5× working stock of 500 nM. Prepare 5 ml total per plate. Add 10 ul of substrate to each well to achieve a final concentration of 100 nM in well. Also prepare background subtraction wells by adding 10 μl 5× substrate to 40 μl assay buffer per well, typically do ˜32 wells. • 9) Incubate assay at room temperature for 15 min. Read in plate reader.
(§1) Analysis Specifications • Calculate average background value from substrate/assay buffer wells • Subtract this from entire plate • Calculate average of DMSO wells for each enzyme. This is the positive control, 100% value. • For each well, calculate percent of control by dividing well value by the average DMSO value obtained above. • Paste percent of control values into Graphpad Prism 4.0.

MMP-9 = target: T2, MMP-9 (Homo sapiens, UniProt P14780); test: MMP enzymatic assay (Trupoint peptide), MMP-9; format: biochemical
T2 construct: Human MMP-9 catalytic domain (aa 107-446)
T2 sequence (P14780 107-446): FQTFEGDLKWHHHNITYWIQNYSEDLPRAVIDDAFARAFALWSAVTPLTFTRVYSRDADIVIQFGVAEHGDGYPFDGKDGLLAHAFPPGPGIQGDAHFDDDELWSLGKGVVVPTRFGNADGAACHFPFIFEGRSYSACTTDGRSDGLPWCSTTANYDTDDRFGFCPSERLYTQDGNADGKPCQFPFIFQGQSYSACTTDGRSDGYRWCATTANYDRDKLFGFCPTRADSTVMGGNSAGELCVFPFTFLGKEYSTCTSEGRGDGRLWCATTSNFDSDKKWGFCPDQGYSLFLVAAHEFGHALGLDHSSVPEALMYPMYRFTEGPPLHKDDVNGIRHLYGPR
Description: [formula] • 1) Prepare appropriate 1×MMP assay buffer from 10× stock. […] The plate setup should be as follows, using GM6001 as plate reference compound:
• 6) Serially dilute 10 μl down the plate to achieve 1:3 dilutions in subsequent wells. After each dilution, change pipette tips to avoid compound carryover. […] Will need 10 ml enzyme solution per plate. Add enzyme to plate, 20 μl per well. Incubate 1 hr.
Prepare 5 ml total per plate. Add 10 ul of substrate to each well to achieve a final concentration of 100 nM in well. […] Read in plate reader.
as §1

Compound	IC50 (MMP-2) [nM]	IC50 (MMP-9) [nM]	IC50 (MMP-2; read-out: MMP-2 nM IC50) [nM]
Cc1ccc(Oc2ccc(S(=O)(=O)Nc3cccn(O)c3=O)cc2)cc1 [Compound 38]	49.8	64.6	–
O=C1[C@H](NS(=O)(=O)c2ccc(Br)s2)CC=CCN1O [Compound 16, 5-Bromo-thiophene-2-sulfonic acid (1-hydroxy-2-oxo-2,3,4,7-tetrahydro-1H-azepin-3-(R)-yl)-amide]	43	28.4	–
O=c1c(COc2ccc(-c3ccc(Br)cc3)cc2)cccn1O [Compound 41, 3-(4′-Bromo-biphenyl-4-yloxymethyl)-1-hydroxy-1H-pyridin-2-one]	> 10000	7140	–
O=C1C(CS(=O)(=O)c2ccc(Oc3ccccc3)cc2)NCCCN1O (stereo not drawn) [Compound 94]	36.8	21.1	–
CN(c1cc(Br)cn(O)c1=O)S(=O)(=O)c1ccc(Oc2ccc(Cl)cc2)cc1 [Compound 32, N-(5-Bromo-1-hydroxy-2-oxo-1,2-dihydro-pyridin-3-yl)-4-(4-chloro-phenoxy)-N-methyl-benzenesulfonamide]	–	–	662
Cc1ccc(Oc2ccc(S(=O)(=O)Cn3cccc(O)c3=O)cc2)cc1 [Compound 61, 3-Hydroxy-1-(4-p-tolyloxy-benzenesulfonylmethyl)-1H-pyridin-2-one]	–	45.8	16.7
Cc1ccc2[nH]c(-c3ccc(S(=O)(=O)C4CCCCN(O)C4=O)cc3)nc2c1 (stereo not drawn) [Compound 75, 1-Hydroxy-3-[4-(5-methyl-1H-benzoimidazol-2-yl)-benzenesulfonyl]-azepan-2-one]	> 1000	> 1000	–
COc1ccc(Oc2ccc(S(=O)(=O)C3CCCN(O)C3=O)cc2)cc1 (stereo not drawn) [Compound 72, 1-Hydroxy-3-[4-(4-methoxy-phenoxy)-benzenesulfonyl]-piperidin-2-one]	–	87.9	167
O=C1[C@H](NS(=O)(=O)Cc2ccc(Cl)cc2)CC=CCN1O [Compound 15, (4-Chloro-phenyl)-N-(1-hydroxy-2-oxo-2,3,4,7-tetrahydro-1H-azepin-3-(R)-yl)-methanesulfonamide]	> 1000	> 1000	–
O=C1C(S(=O)(=O)c2ccc(-c3ccc(Cl)cc3)cc2)CCCCN1O (stereo not drawn) [Compound 82, 3-(4′-Chloro-biphenyl-4-sulfonyl)-1-hydroxy-azepan-2-one]	> 1000	> 1000	–
COc1ccc(Oc2ccc(S(=O)(=O)Cc3cccn(O)c3=O)cc2)cc1 [Compound 97]	–	7.26	17.3
COc1ccc(-c2ccc(S(=O)(=O)N[C@@H]3CC=CCN(O)C3=O)s2)cc1 [Compound 17, 5-(4-Methoxy-phenyl)-thiophene-2-sulfonic acid (1-hydroxy-2-oxo-2,3,4,7-tetrahydro-1H-azepin-3-(R)-yl)-amide]	3.9	10.7	–
O=C1[C@H](NS(=O)(=O)c2ccc(Oc3ccccc3)cc2)CC=CCN1O [Compound 3, N-(1-Hydroxy-2-oxo-2,3,4,7-tetrahydro-1H-azepin-3-(R)-yl)-4-phenoxy-benzenesulfonamide]	1.07	1.76	–
CCN(c1cccn(O)c1=O)S(=O)(=O)c1ccc(Oc2ccc(C)cc2)cc1 [Compound 27, N-Ethyl-N-(1-hydroxy-2-oxo-1,2-dihydro-pyridin-3-yl)-4-p-tolyloxy-benzene-sulfonamide]	6.5	3.6	–
CN(c1cccn(O)c1=O)S(=O)(=O)c1ccc(Oc2ccc(C(F)(F)F)cc2)cc1 [Compound 30, N-(1-Hydroxy-2-oxo-1,2-dihydro-pyridin-3-yl)-N-methyl-4-(4-trifluoromethyl-phenoxy)-benzenesulfonamide]	–	32.7	–
O=C1[C@H](NS(=O)(=O)c2ccc(Oc3ccc(Cl)cc3)cc2)CCCN1O [Compound 57, (R)-4-(4-Chloro-phenoxy)-N-(1-hydroxy-2-oxo-piperidin-3-yl)-benzene-sulfonamide]	–	57.9	–
Cc1ccn(O)c(=O)c1N(C)S(=O)(=O)c1ccc(Oc2ccc(Cl)cc2)cc1 [Compound 31, 4-(4-Chloro-phenoxy)-N-(1-hydroxy-4-methyl-2-oxo-1,2-dihydro-pyridin-3-yl)-N-methyl-benzenesulfonamide]	–	–	66.2
